What all share (format): physicochemical
Series [1] can be described thus: Experimental Example 4: comparison of hygroscopicity by weight gain over time (40 to 46% RH). Particulars: 24° C. Here is the method: The L-Ala-OEt HCl salt, L-Ala-OEt MsOH salt, L-Ala-OEt BsOH salt, L-Ala-OEt 4-CBS salt, L-Ala-OEt 4-EBS salt, L-Ala-OEt 2,4-DMBS salt, and L-Ala-OEt 2,5-DMBS salt were measured in an amount of about 0.3 g each, left standing in a thermostatic chamber at a temperature of 24° C. and a humidity of 40 to 46% RH, and the hygroscopicity was compared based on the weight gain with the lapse of time. A part of the crystal of the L-Ala-OEt HCl salt was liquefied in 30 minutes, and the liquefied portion increased thereafter with the lapse of time. After 100 minutes, the whole mass became like a sherbet.

Series [2] is described as follows: Experimental Example 5: comparison of hygroscopicity by weight gain over time (60 to 66% RH). The conditions noted are these: 24 EC.
Experimental: The L-Ala-OMe HCl salt, L-Ala-OEt MsOH salt, L-Ala-OEt BsOH salt, L-Ala-OEt 4-CBS salt, L-Ala-OEt 4-EBS salt, L-Ala-OEt 2,4-DMBS salt, and L-Ala-OEt 2,5-DMBS salt were measured in an amount of about 0.3 g each, left standing in a thermostatic chamber at a temperature of 24 EC and a humidity of 60 to 66% RH, and the hygroscopicity was compared based on the weight gain with the lapse of time.
Series [3] in a line: Experimental Example 7: evaluation of hygroscopicity by weight gain over time (60 to 66% RH). The conditions noted are these: 24 EC. As to the method:
The L-Ala-OMe HCl salt, L-Ala-OMe 4-EBS salt, L-Ala-OMe 2,4-DMBS salt, and L-Ala-OMe 2,5-DMBS salt were measured in an amount of about 0.3 g each, left standing in a thermostatic chamber at temperature of 24 EC and a humidity of 60 to 66% RH, and the hygroscopicity was compared based on the weight gain with the lapse of time. A part of the crystal of the L-Ala-OMe HCl salt was liquefied in 10 minutes, and the entirety became a sherbet in 20 minute. The liquefied portion increased thereafter with the lapse of time. After 80 minutes, the whole was liquefied.

We go through six molecules from patent US7205433B2, “Crystal of amino acid ester salt and process for producing the same” (Ajinomoto Co., Inc., priority 2002, dated 2007).

Consider `CCOC(=O)[C@H](C)N.O=S(=O)(O)c1ccc(Cl)cc1` [L-Ala-OEt 4-CBS salt, L-alanine ethyl ester 4-chlorobenzenesulfonate], for which the “weight increase rate (%)” value in series [1] (0 minutes) is on record as 0.00%; in series [1] (15 minutes), 1.55%; in series [1] (30 minutes) it was 1.51%; in series [1] (45 minutes), 1.48%; in series [1] (60 minutes), 1.81%; in series [1] (75 minutes), 2.01%. Besides, the “weight increase rate (%)” value turned out to be 2.14% in series [1] (90 minutes); 2.30% in series [1] (120 minutes); 2.17% in series [1] (150 minutes); 2.27% in series [1] (180 minutes); 0.00% in series [2] (0 minutes); 2.26% in series [2] (10 minutes). For the same molecule, the “weight increase rate (%)” value in series [2] (20 minutes) amounted to 2.83%; in series [2] (35 minutes), 3.38%; in series [2] (50 minutes), 3.77%; in series [2] (65 minutes) it was 4.10%; in series [2] (80 minutes) it was 4.31%; in series [2] (95 minutes) it was 4.46%. The “weight increase rate (%)” value was determined as 4.58% in series [2] (110 minutes); 4.70% in series [2] (125 minutes); 4.76% in series [2] (140 minutes); 4.82% in series [2] (155 minutes); 4.94% in series [2] (170 minutes); 4.94% in series [2] (185 minutes). In addition, the “weight increase rate (%)” value in series [2] (200 minutes) is recorded as 5.03%.
As for `CCOC(=O)[C@H](C)N.O=S(=O)(O)c1ccccc1` [L-Ala-OEt BsOH salt, L-alanine ethyl ester benzenesulfonate], the “weight increase rate (%)” value in series [1] (0 minutes) is reported as 0.00%; in series [1] (15 minutes), 0.66%; in series [1] (30 minutes), 0.63%; in series [1] (45 minutes), 0.75%; in series [1] (60 minutes), 0.93%; in series [1] (75 minutes), 1.05%. The “weight increase rate (%)” value in series [1] (90 minutes) stood at 1.08%; in series [1] (120 minutes), 1.23%; in series [1] (150 minutes), 1.02%; in series [1] (180 minutes), 1.08%; in series [2] (0 minutes), 0.00%; in series [2] (10 minutes), 1.46%. Moreover, the “weight increase rate (%)” value in series [2] (20 minutes) is reported as 1.80%; in series [2] (35 minutes) it was 1.97%; in series [2] (50 minutes), 2.11%; in series [2] (65 minutes), 2.22%; in series [2] (80 minutes) it was 2.25%; in series [2] (95 minutes) it was 2.28%. For the same molecule, the “weight increase rate (%)” value in series [2] (110 minutes) turned out to be 2.22%; in series [2] (125 minutes), 2.22%; in series [2] (140 minutes), 2.22%; in series [2] (155 minutes), 2.22%; in series [2] (170 minutes), 2.28%; in series [2] (185 minutes), 2.25%. Moreover, the “weight increase rate (%)” value in series [2] (200 minutes) turned out to be 2.25%.
On to “L-alanine ethyl ester 2,4-dimethylbenzenesulfonate [L-Ala-OEt 2,4-DMBS salt]”, for which the “weight increase rate (%)” value in series [1] (0 minutes) was 0.00%; in series [1] (15 minutes), 0.00%; in series [1] (30 minutes) it was 0.00%; in series [1] (45 minutes), 0.00%; in series [1] (60 minutes) it was 0.03%; in series [1] (75 minutes) it was 0.03%. For the same molecule, the “weight increase rate (%)” value is listed as 0.06% in series [1] (90 minutes); 0.06% in series [1] (120 minutes); 0.06% in series [1] (150 minutes); 0.06% in series [1] (180 minutes); 0.00% in series [2] (0 minutes); 0.00% in series [2] (10 minutes). Also, the “weight increase rate (%)” value in series [2] (20 minutes) was 0.00%; in series [2] (35 minutes), 0.00%; in series [2] (50 minutes), 0.00%; in series [2] (65 minutes), 0.00%; in series [2] (80 minutes), 0.03%; in series [2] (95 minutes) it was 0.00%. The “weight increase rate (%)” value turned out to be 0.03% in series [2] (110 minutes); 0.03% in series [2] (125 minutes); 0.03% in series [2] (140 minutes); 0.03% in series [2] (155 minutes); 0.06% in series [2] (170 minutes); 0.06% in series [2] (185 minutes). Further, the “weight increase rate (%)” value in series [2] (200 minutes) came to 0.06%.
With “L-alanine ethyl ester 2,5-dimethylbenzenesulfonate [L-Ala-OEt 2,5-DMBS salt]”, the “weight increase rate (%)” value was determined as 0.00% in series [1] (0 minutes); 0.00% in series [1] (15 minutes); 0.00% in series [1] (30 minutes); 0.06% in series [1] (45 minutes); 0.10% in series [1] (60 minutes); 0.16% in series [1] (75 minutes). The “weight increase rate (%)” value turned out to be 0.19% in series [1] (90 minutes); 0.26% in series [1] (120 minutes); 0.32% in series [1] (150 minutes); 0.32% in series [1] (180 minutes); 0.00% in series [2] (0 minutes); 0.00% in series [2] (10 minutes). Besides, the “weight increase rate (%)” value in series [2] (20 minutes) is listed as 0.03%; in series [2] (35 minutes) it was 0.03%; in series [2] (50 minutes) it was 0.09%; in series [2] (65 minutes) it was 0.06%; in series [2] (80 minutes), 0.06%; in series [2] (95 minutes), 0.06%. In addition, the “weight increase rate (%)” value stood at 0.12% in series [2] (110 minutes); 0.06% in series [2] (125 minutes); 0.09% in series [2] (140 minutes); 0.09% in series [2] (155 minutes); 0.09% in series [2] (170 minutes); 0.09% in series [2] (185 minutes). In addition, the “weight increase rate (%)” value in series [2] (200 minutes) turned out to be 0.12%.
As to “L-alanine ethyl ester 4-ethylbenzenesulfonate [L-Ala-OEt 4-EBS salt]”, the “weight increase rate (%)” value in series [1] (0 minutes) was 0.00%; in series [1] (15 minutes), 0.00%; in series [1] (30 minutes), 0.00%; in series [1] (45 minutes), 0.00%; in series [1] (60 minutes) it was 0.13%; in series [1] (75 minutes), 0.19%. Also, the “weight increase rate (%)” value was 0.22% in series [1] (90 minutes); 0.41% in series [1] (120 minutes); 0.54% in series [1] (150 minutes); 0.36% in series [1] (180 minutes); 0.00% in series [2] (0 minutes); 0.09% in series [2] (10 minutes). In addition, the “weight increase rate (%)” value in series [2] (20 minutes) amounted to 0.09%; in series [2] (35 minutes), 0.15%; in series [2] (50 minutes), 0.15%; in series [2] (65 minutes) it was 0.15%; in series [2] (80 minutes), 0.15%; in series [2] (95 minutes), 0.15%. Also, the “weight increase rate (%)” value is listed as 0.18% in series [2] (110 minutes); 0.15% in series [2] (125 minutes); 0.18% in series [2] (140 minutes); 0.18% in series [2] (155 minutes); 0.18% in series [2] (170 minutes); 0.15% in series [2] (185 minutes). Moreover, the “weight increase rate (%)” value in series [2] (200 minutes) is 0.21%.
In the case of “L-alanine methyl ester 2,4-dimethylbenzenesulfonate [L-Ala-OMe 2,4-DMBS salt]”, the “weight increase rate (%)” value in series [3] (0 min) is reported as 0.00%; in series [3] (10 min) it was 0.33%; in series [3] (20 min) it was 0.37%; in series [3] (35 min), 0.37%; in series [3] (50 min) it was 0.37%; in series [3] (65 min) it was 0.37%. In addition, the “weight increase rate (%)” value in series [3] (80 min) was 0.37%; in series [3] (95 min), 0.37%; in series [3] (110 min) it was 0.40%; in series [3] (125 min), 0.43%; in series [3] (140 min) it was 0.40%; in series [3] (155 min), 0.43%. For the same molecule, the “weight increase rate (%)” value turned out to be 0.47% in series [3] (170 min), 0.50% in series [3] (185 min) and 0.50% in series [3] (200 min).
